Laboratory results as given in patent US20230146923A1, “COMPOSITIONS AND METHODS FOR INHIBITION AND TARGETING OF P97” (California Institute of Technology, priority 2021, published 2023).
Where two headings read alike, the source gives them in different places.

Columns and labels:
cyclin D1 [1] = assay: Cyclin D1 level and degradation (co-treatment, CHX chase); format: cell-based; conditions: HCT116, 6 hours; MG132 1 μM, CB-5083 2 μM, Baf A1 10 μM
Protocol: FIGS. 12A-12C depicts Western blots detecting the effects of p97 inhibitors and MG132 on cell cycle proteins in HT29 and HCT116 cells. […] Then, 50 μM of CHX was added and cells were collected at 0 h, 0.5 h, and 1 h. FIG. 12C depicts half-life of cyclin D1 in HCT116 cells. HCT116 cells were pre-treated with 5 μM of CB-5083 or DMSO for 30 minutes before adding 50 μM of CHX, and cells were collected at 0, 10, 20, 30 min (n=3), * indicates p<0.05 according to unpaired t-test.
(§1) The concentration of MG132, CB-5083 and Baf A1 was 1 μM, 2 μM and 10 μM, respectively. […] FIGS. 13D-13E depict the half-life of Securin in HCT116 cells. HCT116 cells were treated with 1 μM of MG132, 2 μM of CB-5083, 1 μM of MG132 plus 2 μM of CB-5083 or DMSO. […] Cells were pretreated with […] for 1 h. […] For FIGS. 13B-13G, D, B, M, C and N represents DMSO, Baf A1, MG132, CB-5083 and NMS-873, respectively. Data are shown as mean±SD. Statistical analysis was performed using one-way ANOVA.
Cells were co-treated with CB-5083 and either the proteasome inhibitor MG132 or the autophagy inhibitor Bafilomycin A1 (Baf A1).

[2] = test system: cancer cell proliferation; conditions: ref [22]; cited from earlier work
Securin [3] = conditions: HT29, pretreated with MG132 for 1 h, then 2 μM CB-5083 with 50 μM CHX
Protocol: as §1

HCT116 cells [4] = conditions: HCT116, 6 h treatment, 2 μM CB-5083
Protocol: as §1

Securin [5] = assay: Securin degradation (CHX chase) in HCT116 cells; format: cell-based; conditions: HCT116, pretreated with MG132 for 1 h, then 2 μM CB-5083 with 50 μM CHX
Protocol: as §1

HCT116 cells [6] = assay: Cell cycle analysis (DNA content); format: cell-based; conditions: HCT116, 24 h
Protocol: FIG. 7A depicts cell cycle analysis of HCT116 cells after 24 h of treatments with DMSO, 1 μM of MG132 (MG) or 2 μM of CB-5083. […] Data were from TMT labeling proteomics. M, C and N indicates MG132, CB-5083 and NMS-873 treatment, respectively. […] HCT116 cells were treated for 24 h with DMSO, 1 μM of MG132 (MG), 2 μM of CB-5083 (CB) or 4 μM of NMS-873 (NMS), n=3.

HCT116 cells [7] = assay: TMT labeling proteomics of HCT116 cells treated with MG132, CB-5083 or NMS-873; format: cell-based; conditions: for Log2 FC Baculoviral IAP repeat-containing protein 5 (BIRC5) / Log2 FC Cell division cycle protein 20 homolog (CDC20) / Log2 FC F-box only protein 5 (FBXO5) / Log2 FC G1/S-specific cyclin-D1 (CCND1) / Log2 FC Geminin (GMNN) / Log2 FC M-phase inducer phosphatase 2 (CDC25B) / Log2 FC Mitotic checkpoint serine/threonine-protein kinase BUB1 (BUB1) / Log2 FC Myc proto-oncogene protein (MYC) / Log2 FC Origin recognition complex subunit 6 (ORC6) / Log2 FC Ribonucleoside-diphosphate reductase subunit M2 (RRM2) / Log2 FC Securin (PTTG1): compound vs DMSO; for Four XBP1 activated genes/proteins (DNAJB11, SRPR, SRPRB, SYVN1), Log2FC: HCT116, 24 h of treatment, p<0.05
Protocol: HCT116 cells were treated with 1 μM MG132, 2 μM CB-5083 or 4 μM of NMS-874 for 6 h or 24 h, n=2. […] M, C and N represents MG132, CB-5083 and NMS-873, respectively.
As a step toward understanding the differential effects of inhibiting p97 and the proteasome in cancer treatment, the effect of inhibiting p97 was compared to proteasome inhibition using tandem mass tag (TMT) 16-plexed labelling. This technique allowed for capture of alterations in the proteome after exposure to MG132 (proteasome inhibitor) and p97 inhibitors (CB-5083 and NMS-873). […] Samples were pooled together, fractionated into 8 fractions using high pH reverse chromatography, and analyzed using the highly accurate RTS-SPS-MS3 method.

HCT116 cells [8] = assay: Temporal label-free (LFQ) proteomics of HCT116 cells treated with p97 inhibitors; format: cell-based; conditions: 4 μM UPCDC-30245, 2 μM CB-5083, 4 μM NMS-873
Protocol: This percentage was calculated by dividing the number of overlapping proteins by the sum of all DE proteins identified by p97 KD and/or inhibitor treatment. HCT116 cells were treated with 4 μM UPCDC-30245, 2 μM CB-5083 or 4 μM of NMS-874 for the indicated time points, n=2.
To explore the temporal proteomic profiles of p97 inhibition, HCT116 cells were treated with DMSO, and p97 inhibitors (CB-5083, NMS-873 or UPCDC-30245) for 2 h, 6 h, 10 h, 18 h, or 24 h in duplicate. […] To compare the proteomic profile of p97 shRNA KD to that of different p97 inhibitors, DE proteins identified through p97 KD were compared with those identified under different inhibitor treatments (p<0.05) at each time point. […] To reveal the cellular effects common to both p97 KD and p97 inhibitors, overlapping DE proteins across different timepoints for each inhibitor treatment were combined.

HCT116 tumor cells = conditions: mouse xenograft models implanted with HCT116 tumor cells, ref [22]; cited from earlier work
cyclin D1 [9] = conditions: Parisi et al. [71]; cited from earlier work

Compound	Log2 FC Baculoviral IAP repeat-containing protein 5 (BIRC5) (HCT116 cells [7]; HCT116, 6 h treatment)	Log2 FC Cell division cycle protein 20 homolog (CDC20) (HCT116 cells [7]; HCT116, 6 h treatment)	Log2 FC F-box only protein 5 (FBXO5) (HCT116 cells [7]; HCT116, 6 h treatment)	Log2 FC G1/S-specific cyclin-D1 (CCND1) (HCT116 cells [7]; HCT116, 6 h treatment)	Log2 FC Geminin (GMNN) (HCT116 cells [7]; HCT116, 6 h treatment)	Log2 FC M-phase inducer phosphatase 2 (CDC25B) (HCT116 cells [7]; HCT116, 6 h treatment)	Log2 FC Mitotic checkpoint serine/threonine-protein kinase BUB1 (BUB1) (HCT116 cells [7]; HCT116, 6 h treatment)	Log2 FC Myc proto-oncogene protein (MYC) (HCT116 cells [7]; HCT116, 6 h treatment)	Log2 FC Origin recognition complex subunit 6 (ORC6) (HCT116 cells [7]; HCT116, 6 h treatment)	Log2 FC Ribonucleoside-diphosphate reductase subunit M2 (RRM2) (HCT116 cells [7]; HCT116, 6 h treatment)	Log2 FC Securin (PTTG1) (HCT116 cells [7]; HCT116, 6 h treatment)	Four XBP1 activated genes/proteins (DNAJB11, SRPR, SRPRB, SYVN1), Log2FC (HCT116 cells [7])	Log2 FC Baculoviral IAP repeat-containing protein 5 (BIRC5) (HCT116 cells [7]; HCT116, 24 h treatment)	Log2 FC Cell division cycle protein 20 homolog (CDC20) (HCT116 cells [7]; HCT116, 24 h treatment)	Log2 FC F-box only protein 5 (FBXO5) (HCT116 cells [7]; HCT116, 24 h treatment)	Log2 FC G1/S-specific cyclin-D1 (CCND1) (HCT116 cells [7]; HCT116, 24 h treatment)	Log2 FC Geminin (GMNN) (HCT116 cells [7]; HCT116, 24 h treatment)	Log2 FC M-phase inducer phosphatase 2 (CDC25B) (HCT116 cells [7]; HCT116, 24 h treatment)	Log2 FC Mitotic checkpoint serine/threonine-protein kinase BUB1 (BUB1) (HCT116 cells [7]; HCT116, 24 h treatment)	UPR proteins and those linked to protein processing in the ER (HCT116 cells [8])	other results
CO/C1=C\C(C)=C\[C@@H](C)[C@@H](O)[C@@H](C)C/C(C)=C/C=C/[C@H](OC)[C@@H]([C@@H](C)[C@@H](O)[C@H](C)[C@@]2(O)C[C@@H](O)[C@H](C)[C@@H](C(C)C)O2)OC1=O [Baf A1, Bafilomycin A1]	–	–	–	–	–	–	–	–	–	–	–	–	–	–	–	–	–	–	–	–	Effect on CB-5083 mediated cyclin D1 downregulation (co-treatment) (cyclin D1 [1]): no effect on cyclin D1 levels
Cc1cc2c(C(N)=O)cccc2n1-c1nc2c(c(NCc3ccccc3)n1)COCC2 [CB-5083]	−0.5	−0.4	−0.8	−1.4	−0.4	−1.1	−0.3	−0.5	−0.4	−0.2	−0.9	significantly upregulated	−0.8	−1.5	−1.0	−2.0	−1.1	−1.6	−1.1	upregulated	Cancer cell proliferation [2]: strongly inhibited cancer cell proliferation; Degradation of Securin after MG132 pretreatment (Securin [3]): slightly accelerated the degradation of Securin; RNA level of CDC20 (HCT116 cells [4]): downregulated; Degradation of Securin after MG132 pretreatment (Securin [5]): slightly accelerated the degradation of Securin; Potency in reducing G0/G1 and increasing G2/M distribution compared to MG132 (HCT116 cells [6]): less potent; Distribution of cells in the G0/G1 phase (HCT116 cells [6]; 1 μM MG132, 2 μM CB-5083): reduced distribution in the G0/G1 phase; Log2 FC Myc proto-oncogene protein (MYC) (HCT116 cells [7]; HCT116, 24 h treatment): −0.7; Log2 FC Origin recognition complex subunit 6 (ORC6) (HCT116 cells [7]; HCT116, 24 h treatment): −0.3; Log2 FC Ribonucleoside-diphosphate reductase subunit M2 (RRM2) (HCT116 cells [7]; HCT116, 24 h treatment): −1.1; Log2 FC Securin (PTTG1) (HCT116 cells [7]; HCT116, 24 h treatment): −1.9; Tumor growth (HCT116 tumor cells): efficacious in inhibiting tumor growth
c1ccc(CNc2nc(NCc3ccccc3)c3ccccc3n2)cc1 [DBeQ, N^2,N^4-Bis(phenylmethyl)-2,4-quinazolinediamine]	–	–	–	–	–	–	–	–	–	–	–	–	–	–	–	–	–	–	–	–	Cyclin D1 degradation (cyclin D1 [9]): promotes cyclin D1 degradation
Cc1cc(OCc2nnc(SC3CCCC3)n2-c2cccnc2)ccc1-c1ccc(S(C)(=O)=O)cc1 [NMS-873, 3-[3-cyclopentylsulfanyl-5-[[3-methyl-4-(4-methylsulfonylphenyl)phenoxy]methyl]-1,2,4-triazol-4-yl]pyridine]	−0.5	−0.6	−1.1	−1.8	−0.6	−1.6	−0.4	−1.1	−0.5	−0.3	−1.2	significantly upregulated	−2.0	−2.8	−2.4	−3.2	−1.8	−2.2	−2.1	upregulated	Log2 FC Myc proto-oncogene protein (MYC) (HCT116 cells [7]; HCT116, 24 h treatment): −1.1; Log2 FC Origin recognition complex subunit 6 (ORC6) (HCT116 cells [7]; HCT116, 24 h treatment): −0.6; Log2 FC Ribonucleoside-diphosphate reductase subunit M2 (RRM2) (HCT116 cells [7]; HCT116, 24 h treatment): −2.7; Log2 FC Securin (PTTG1) (HCT116 cells [7]; HCT116, 24 h treatment): −2.9
CC(C)N1CCN(CCNC2CCN(c3cccc(-c4cc5cc(F)ccc5[nH]4)c3)CC2)CC1 [UPCDC-30245, 1-(3-(5-Fluoro-1H-indol-2-yl)phenyl)-N-(2-(4-isopropylpiperazin-1-yl)ethyl)piperidin-4-amine]	–	–	–	–	–	–	–	–	–	–	–	–	–	–	–	–	–	–	–	not	–
